Measured values taken from patent publication US20230124142A1, “NEW THERAPEUTIC TARGETS WITH AN ANTI-INFLAMMATORY AND ANTI-INTERFERON EFFECT” (UNIVERSITÉ PARIS CITÉ, priority 2020, published 2023).

Legend:
[1] = tested on: PBMCs of patients suffering from juvenile idiopathic arthritis; assay: Transcription of TNFα and IL-6 genes in PBMCs of juvenile idiopathic arthritis patients, RT-qPCR; format: cell-based, human; details: inhibitor at 1 μM for 16 h, RT-qPCR (FIG. 21)
[2] = tested on: peripheral blood mononuclear cells (PBMCs); assay: Cell toxicity on PBMCs, ATP quantification with CellTiter Glo; format: cell-based, human; details: cGAMP 24 h
[3] = tested on: monocytes of healthy donors; assay: Intracellular TNFα production in monocytes after TLR7/8 (Resiquimod-R848) stimulation, flow cytometry; format: cell-based, human; details: inhibitor 1 h before R848 (TLR7/8), 16 h, flow cytometry (FIG. 1, 2)
Procedure: (§1) The cells were rinsed in PBS then incubated with a viability dye (Zombie Aqua, Biolegend) for 30 min at ambient temperature. After washing, the cells were resuspended in PBS containing 2% SVF and 2 mM EDTA then labelled with the APC Vio770 anti-CD14 (clone REA599) antibody from Miltenyi Biotec, used at 1/100°. […] Data acquisition was carried out on the Canto 11 flow cytometer using the Diva software (BD Biosciences, San Jose, Calif.). The Kaluza software was used to analyze the data.

[4] = tested on: HEK293 non-immune cell line; assay: Interferon production by cGAMP-activated HEK293 non-immune cells (STING-37), luciferase; details: inhibitor at 1 and 5 μM (FIG. 22C)
[5] = tested on: immune cells (PBMCs and purified monocytes) of healthy donors; assay: Production of inflammatory cytokines by PBMCs and purified monocytes after TLR2/4 stimulation by bacterial agents; format: cell-based, human; details: TLR 2/4 stimulation by lipoteichoic acid/LPS
T lymphocytes = assay: CD69 expression and viability of T lymphocytes activated with CD3/CD28 beads, flow cytometry; format: cell-based, human; details: purified T lymphocytes, 3 days (FIG. 19)
Procedure: (§2) The monocytes, T lymphocytes and B lymphocytes were cultured at 1·10^6/ml. […] The T lymphocytes were stimulated for 3 days with beads from the “Dynabeads human T activator CD3/CD28” kit from Thermo Fisher Scientific, following their instructions. […] The B lymphocytes were stimulated for 24 h with CpG-A t 1 μg/ml. […] The cells were rinsed in PBS then incubated with a viability dye (Zombie Aqua, Biolegend) for 30 min at ambient temperature. After washing, the cells were resuspended in PBS containing 2% SVF and 2 mM EDTA. For the monocytes, an intracellular labelling of TNFα, IL-6 and IL-1β, with the “Inside Stain” kit (Miltenyi Biotec) was used following the manufacturer's protocol. […] Data acquisition was carried out on the Attune N×T flow cytometer from Thermo Fisher. The FlowJo software was used to analyze the data. For the T lymphocytes, the cells were suspended in PBS containing 2% SVF and 2 mM EDTA then labelled with the PE anti-CD69 and APC anti-CD3 antibody from Miltenyi Biotec, used at 1/100°. After incubation for 30 min, the cells were rinsed in PBS containing 2% SVF and 2 mM EDTA. Data acquisition was carried out on the Attune N×T flow cytometer from Thermo Fisher. The FlowJo software was used to analyze the data. […]

[6] = tested on: THP1-Dual human monocyte cell line; assay: Interferon response of cGAMP-activated THP1-Dual cells, luciferase; details: inhibitor 1 h before cGAMP 3 μg/ml, 24 h, luciferase (FIG. 22B, 23B)
[7] = tested on: monocytes of healthy donors; assay: TNFα, IL-1β and IL-6 production and viability of R848-activated purified monocytes, flow cytometry; format: cell-based, human
Procedure: as §2

[8] = tested on: THP1-Dual human monocyte cell line; assay: Cell toxicity on THP1-Dual, ATP quantification with CellTiter Glo; format: cell-based; details: cGAMP 24 h
[9] = tested on: peripheral blood mononuclear cells (PBMCs); assay: Interferon production by cGAMP-activated PBMCs, STING-37 reporter cell line; details: inhibitor 1 h before cGAMP 3 μg/ml, 24 h, STING-37 reporter (FIG. 22A, 23A)
[10] = tested on: monocytes of healthy donors; assay: Intracellular IL1β and TNFα in monocytes after inflammasome activation by uric acid crystals (MSU, gout model), flow cytometry; format: cell-based, human; details: activation of the inflammasome by uric acid crystals (mimicking gout)
Procedure: as §1, with “II” for “11”

[11] = tested on: NF-κB transcription factor; assay: NF-κB transcription factor activity, supernatants of R848-stimulated PBMCs on THP1-Dual reporter line; format: cell-based; details: human PBMCs, inhibitor 1 h before R848, 24 h, QUANTI-Blue (FIG. 17B)
Procedure: The monocytes, T lymphocytes and B lymphocytes were cultured at 1·10^6/ml. […] The T lymphocytes were stimulated for 3 days with beads from the “Dynabeads human T activator CD3/CD28” kit from Thermo Fisher Scientific, following their instructions. […] The B lymphocytes were stimulated for 24 h with CpG-A t 1 μg/ml. […] The activity of the NF-κB transcription factor was measured by means of the THP1-Dual reporter cell line from Invivogen. […] The activity of the NF-κB transcription factor was measured with QUANTI-Blue, a detection agent […], following the supplier's recommendations.

human PBMCs = assay: Interferons in supernatants of R848-stimulated PBMCs, STING-37 reporter cell line; format: cell-based; design: dose or concentration left out as unconfirmed; details: inhibitor 1 h before R848, 24 h, STING-37 reporter (FIG. 17A)
activated immune cells = assay: Secretion of inflammatory cytokines and interferons by activated immune cells placed in contact with ROCK inhibitor; format: cell-based; details: compared with activated immune cells not placed in contact with the inhibitor
B lymphocytes = assay: CD69 expression and viability of B lymphocytes activated with CpG-A (TLR9 ligand), flow cytometry; format: cell-based, human; details: purified B lymphocytes, 24 h (FIG. 20)
Procedure: as §2

[12] = tested on: peripheral blood mononuclear cells (PBMCs) of healthy donors; assay: Secretion of inflammatory cytokines and interferons by PBMCs after TLR7/8 (R848) stimulation, LegendPlex; details: human PBMCs incubated with inhibitor before R848 stimulation
[13] = tested on: neurones infected by the prions; format: cell-based

SMILES: C[C@@H](N)[C@H]1CC[C@H](C(=O)Nc2ccncc2)CC1 [Y27632]
- transcription of the genes encoding TNFα and IL-6 [1]: inhibits the transcription
- viability of the PBMCs [2]: without affecting the viability
- intracellular production of inflammatory cytokines (TNFα) [3]: inhibits, according to a dosage effect
- production of interferon induced by the STING ligand [4]: blocks in a limited manner
- production of inflammatory cytokines [5]: capable of inhibiting the production of inflammatory cytokines
- viability of the T lymphocytes (T lymphocytes; CD3/CD28 beads): without affecting the viability
- expression of the CD69 marker at the surface of the T lymphocytes (T lymphocytes; inhibitor at 1 and 5 μM, 1 h before CD3/CD28 beads): inhibits, according to a dosage effect
- production of interferons (IFN) induced by the cGAMP [6]: blocks the production of interferons (IFN) induced by the cGAMP according to a dosage effect starting from 1 μM
- production of TNFα, IL-1β and IL-6 induced by R848 ([7]; inhibitor 1 h before R848 1 μg/ml, 6 h, flow cytometry (FIG. 18)): inhibits, according to a dosage effect
- viability of the monocytes ([7]; inhibitor 1 h before R848, 6 h (FIG. 18)): without affecting the viability
- viability of the THP1-Dual [8]: without affecting the viability
- production of interferons (IFN) induced by the cGAMP [9]: blocks the production of interferons (IFN) induced by the cGAMP according to a dosage effect starting from 1 μM
- production of inflammatory cytokines [10]: capable of inhibiting the production of inflammatory cytokines
- activation of the transcription factor of the NF-κB pathway induced by the stimulation of TLR7/8 [11]: inhibits
- production of IFN induced by the stimulation of TLR7/8 (human PBMCs): inhibits
- secretion of the inflammatory cytokines (TNFα, IL-1β, IL6, MCP1 (CCL2)) and of the interferons (IFN) (activated immune cells): inhibits the secretion
- viability of the B lymphocytes (B lymphocytes; CpG-A): without affecting the viability
- expression of the CD69 marker at the surface of the B lymphocytes (B lymphocytes; inhibitor at 1 μM, 1 h before CpG-A 1 μg/ml): inhibits, according to a dosage effect
- production of TNFα and of pro-inflammatory cytokines such as IL-6, IL-1β and the interferons induced by the TLR7/8 stimulation [12]: inhibits the production
- level of TNFα in the culture medium [13]: re-establishes a “normal” level
